Each structure is given as a SMILES string.

For orientation: melting point means the temperature, or range, at which the solid turns liquid. Take `CCc1cc(-c2c3ccccc3cc3oc(C)c(C)c23)cc(CC)c1OS(=O)(=O)c1ccc(C(=O)O)c(O)c1`: the melting point was 222 to 227 °C.

Consider `CCOC(=O)CCCCOc1ccc(OCC(F)(F)F)cc1C(=O)NCC1CCCCN1` (stereo not drawn), for which the melting point lay in the range of 100 to 102 °C.

`COC(=O)/C=C/c1ccc2nn(C)cc2c1C(=O)OC` returned a melting point of 232 to 234 °C.

Molecule `COC(=O)C1(C(=O)OC)CCC(c2c(-c3ccccc3)n(C)c3ccccc23)CC1` had a melting point of 134 to 135 °C.

Take `CCN(CC)C(=O)Nc1ccc(S(=O)(=O)N2C(=O)C(CCCN(C)C)(c3ccccc3F)c3cc(C)c(OC)cc32)cc1F` (stereo not drawn): the melting point was 82 °C.

On to `COC1=CC(=O)CN(Cc2ccccc2)C1`, for which the melting point fell in the range of 113 to 115 °C.

As to `CN(C=O)c1ccc2[nH]cc(CC#N)c2c1`, the melting point fell in the range of 118 to 120 °C.

Molecule `O=C(NC(=O)N1CCC(COc2ccccc2)CC1)c1ccc(O)cc1` yielded a melting point of 207 °C.

With `Cc1ccc(S(=O)(=O)OCC(COC(=O)c2ccccc2)OS(=O)(=O)c2ccc(C)cc2)cc1` (single isomer, unassigned; (-)), the melting point was 105 to 106 °C.

`Cc1nnc2n1-c1ccccc1C(c1ccc(Cl)cc1)=NN2Cc1ccc(NC=O)cc1` gave a melting point of 215 to 216 °C.

`CC(=O)CCc1nc2c(N)nc3ccccc3c2n1CC(C)(C)O` displayed a melting point of 181 to 184 °C.

In turn, `CCC(C)C(C(=O)O)n1sc2ccccc2c1=O` (stereo not drawn) returned a melting point of 50 to 52 °C.

Regarding `CC[C@H](C)[C@H](NC[C@@H](N)CS)C(=O)N[C@@H](Cc1ccccc1)C(=O)N[C@@H](CCSC)C(=O)OCc1ccccc1`, the melting point lay in the range of 71 to 78 °C.

In turn, `O=C1OC2(CC(c3ccccc3C(F)(F)F)=NO2)c2ccccc21` (stereo not drawn) had a melting point of 149 to 150 °C.

On to `CCOCc1nc2c(N)nc3cc(OCCCN4CCCC4=O)ccc3c2n1CCCCN1CCCS1(=O)=O`, for which the melting point lay within 142 to 144 °C.

The molecule `O=C1CCCN1c1cccc(-n2cnc3cc(Br)cnc32)c1` returned a melting point of 194 to 195 °C.

For the molecule `CC(Sc1cc(C(C)(C)C)c(O)c(C(C)(C)C)c1)C(=O)CC(C)(O)C(C)Sc1cc(C(C)(C)C)c(O)c(C(C)(C)C)c1` (stereo not drawn), the melting point lay within 123 to 128 °C.

`COC(=O)c1oc2cc3ccccc3cc2c1OC` had a melting point of 121 to 124 °C.

Take `O=C(CCCl)n1ccc2ccccc21`: the melting point was 67 °C.

The molecule `CN1C(=O)c2c(n3ccnc3c3c2c2cccnc2n3C2OC(CO)C(O)C(O)C2O)C1=O` (stereo not drawn) returned a melting point of 298 °C.

Molecule `CCOC(=O)C1=Cc2cc(C(F)F)ccc2OC1C(F)(F)F` (stereo not drawn) returned a melting point of 135 to 136 °C.

`Cc1scc(C2=NOCCO2)c1S(=O)(=O)NC(=O)n1nc(OC(C)C)n(C)c1=O`: the melting point was 199 °C.

Molecule `COC(=O)c1c(C)cc(-c2ccccc2)nc1-c1cccc([N+](=O)[O-])c1` registered a melting point of 105 to 106 °C.

Consider `CCCC(=O)N(Cc1ccc(-c2ccccc2C#N)cc1)c1nn(C)cc1C(=O)OCC`, for which the melting point lay in the range of 118 to 119 °C.

For the molecule `CCc1cc2c(ccc(=O)n2Cc2ccc(-c3ccccc3C(=O)O)cc2)c(CC)n1`, the melting point lay in the range of 238 to 240 °C.

Molecule `CCN1C(=O)CNCc2cc(OC)c([N+](=O)[O-])cc21` registered a melting point of 132 to 134 °C.

With `CC1CNc2c(cccc2[N+](=O)[O-])C(=O)N1Cc1ccccc1` (stereo not drawn), the melting point turned out to be 125 °C.

In turn, `COCOc1cc(-n2c(OC)nc(C(F)(F)F)cc2=O)c(F)cc1Cl` displayed a melting point of 97 to 98 °C.

Turning to `Cc1ccc(N2C(=O)C=CC2=O)cc1N1C(=O)C=CC1=O`, the melting point was in the range of 168 to 172 °C.

Regarding `N#CCOc1c(Br)cc(Br)cc1C=O`, the melting point was 125 to 130 °C.

As to `CCC(O)(c1ccc(O)cc1)c1ccc(Br)cc1` (stereo not drawn), the melting point lay within 161 to 162 °C.

Take `COC(=O)CCc1cc2cc(C(F)(F)F)ccc2n1S(=O)(=O)c1cccc2nc(C)sc12`: the melting point was 106 to 108 °C.

In the case of `CC(C)(C(=O)O)c1ccc(C(=O)C2CC2)cc1`, the melting point fell in the range of 84 to 88 °C.

Values taken from a melting point compilation (Tetko et al.; mined from patent text by program, amines drawn as free bases though some values may be those of a salt).
